Source: patent publication US7268155B2, “Photosensitizer conjugates for pathogen targeting” (The General Hospital Corporation, priority 1997, dated 2007)

Tests used:
HCPC-1 cells = test: Phototoxicity to HCPC-1 cells after irradiation, MTT assay; format: cell-based, hamster; settings: 5 μM photosensitizer, light 630-710 nm, MTT 24 h after irradiation
Description: HCPC-1 cells, 2×10^4 in aliquots of 100 μl growth medium with 10% FCS, were seeded in 96-well plates and cultured for 24 h until 70% confluent. Six wells from each plate were incubated with 5 μM of each photosensitizer and irradiated using the conditions described in Example 3. After illumination, cells were incubated with fresh medium at 37° C. for 24 h. Control cells were incubated under the conditions as in Example 3. Cell viability was determined 24 h after irradiation using the MTT-microculture tetrazolium assay, a method that assesses dehydrogenase activity in mitochondria of live cells (Mosmann T. J. Immunol. Methods 65, 55-63, 1983), and survival fractions were calculated as 570 nm absorbance of treated cells divided by that of unirradiated controls.

P. gingivalis [1] = format: cell-based, Porphyromonas gingivalis
Description: In order to establish the effectiveness and selectivity of these conjugates for killing bacteria while sparing mammalian cells, the three conjugates were compared to two widely used clinical photosensitizers, Photofrin II and benzoporphyrin derivative (BPD) (QLT Phototherapeutics Inc., Vancouver, BC). Photosensitizer bulk solid was dissolved in DMSO at 1 mM and diluted in TSB.
Suspensions of P. gingivalis cells (10^8/ml) were incubated in duplicate in the dark at room temperature for 1 min with 5 μm chlorin e6 equivalent of each conjugate, with Photofrin II, and with BPD. Cells were centrifuged, washed once with sterile PBS, and 1 ml fresh TSB was added. In the Example here, the ratios of uptake of chlorin e6 per mg cell protein in P. gingivalis and HCPC-1 cells for the cationic, anionic and neutral conjugates were 46:1, 60:1 and 22:1, respectively.
Bacterial suspensions were added to wells of 12-well plates, and were irradiated in the dark at room temperature using a light emitting diode array which emitted light with wavelengths from 630-710 nm, spanning the absorbance maxima of these photosensitizer compositions. Wells were exposed from below, using fluences from 0 to 25 J/cm^2 at an irradiance of 65 mW/cm^2. Plates were covered during illumination to maintain sterility of the cultures. After illumination of the appropriate wells, serial dilutions of the contents of each well were prepared in TSB, and duplicate 100 μl aliquots were spread on the surfaces of blood agar plates. Survival fractions in each well were calculated by counting the colonies on the plates and dividing by number of colonies from unirradiated controls incubated with photosensitizer in the dark at room temperature for periods equal to irradiation times. Other controls were: bacteria treated neither with photosensitizer nor light, and incubated at room temperature in the dark, and cells exposed to light in the absence of photosensitizer.

P. gingivalis [2] = settings: cited from earlier work
[3] = test system: Porphyromonas gingivalis 381; test: Uptake of chlorin e6 conjugates by P. gingivalis cells (fluorescence of cell extract per mg cell protein); format: cell-based; settings: P. gingivalis 10^9 cells/ml, 1 min incubation, at each concentration (1, 5 and 10 μm chlorin e6 equivalent)
Description: Porphyromonas gingivalis 381, a Gram negative bacterium and one of the most common species in dental plaque, was maintained by weekly subculture in Trypticase Soy Agar (TSA) with 1% hemin, 1% vitamin K and 5% sheep blood. For experimental purposes, the organism was grown anaerobically in a chamber with 80% N2, 10% CO2 at 35° C. for 48 h, harvested by centrifugation and resuspended in Trypticase Soy Broth (TSB) with 1% hemin and 1% vitamin K. Cells were dispersed by sonication and repeated passage through Pasteur pipettes. Cell numbers were measured in a spectrophotometer (at wavelength 600 nm, in which an O.D. of 1 yields 10^8 cells/ml) using one ml tubes, to obtain the appropriate number of bacteria for each experiment (10^9 cells/ml for uptake studies and 10^8 cells/ml for irradiation studies). […]
Fluorescence of each cell extract was measured on a spectrofluorimeter (model FluoroMax, SPEX Industries, Edison, N.J.). The excitation wavelength was 400 nm and emission spectra of cell suspensions were recorded from 580 to 700 nm. The protein content of each cell extract was determined by a modified Lowry method (Markwell M. A. et al. Anal. Biochem. 87:206, 1978) using bovine serum albumin dissolved in 0.1 M NaOH/1% SDS as a protein standard to construct calibration curves. Results were expressed as mol chlorin e6 taken up per mg cell protein.

Substance | killing of HCPC-1 cells (in words) (HCPC-1 cells) | bacteria killed / reduction in viability of P. gingivalis (P. gingivalis [1]) | further results
benzoporphyrin derivative [BPD, reference compound] | killed HCPC-1 cells | – | killing of P. gingivalis (in words) (P. gingivalis [1]; 1 min incubation, light 630-710 nm, fluences 0 to 25 J/cm^2): not P. gingivalis
histatin-5 | – | – | number of molecules that bind P. gingivalis (P. gingivalis [2]): About 3,600 molecules; Kd (P. gingivalis [2]; read-out: Kd of binding to P. gingivalis): ~1 µM
polylysine chlorin e6 [polylysine-chlorin e6] | – | 99.9% | accumulation of the cationic conjugate compared to the anionic and neutral conjugates [3]: 2 times; HCPC-1 cells killed (HCPC-1 cells): less than 2%
polylysine chlorin e6 acetylated [polylysine-chlorin e6-ac] | not HCPC-1 cells | over 90% | –
polylysine chlorin e6-succinylated [polylysine-chlorin e6-succ] | – | 66% | –
